From patent publication US20250228824A1, “COMPOSITIONS AND METHODS FOR INHIBITION OF ITO AS TREATMENT FOR THE J WAVE SYNDROMES AND HYPOTHERMIA” (Lankenau Institute for Medical Research, priority 2021, published 2025)

Experiments:
Nav1.5 = target: T1, Nav1.5 (Homo sapiens, UniProt Q14524); experiment: Automated patch clamp (Qube-384) of INa in HEK cells transfected with SCN5A+SCN1B; assay type: cell-based
T1 construct: expressed in transfected cells; host or cells: HEK cells, transfected with Lipofectamine 2000
Protocol: (§1) HEK cells transiently transfected with wild-type SCN5A (α subunit—Nav1.5) together with SCN1B (β1 subunit) using Lipofectamine 2000 were used to assess the effect of AR-787 on the cardiac sodium channel current (INa). All cells were incubated at 37° C./5% CO2. All cell culture reagents were purchased from Thermo Fisher Scientific (Waltham, MA).
(§2) The effect of AR-787 on cardiac sodium channel current was evaluated in HEK cells co-transfected with SCN5A and SCN1B. INa was measured in the whole-cell configuration using a Qube-384 (Sophion A/S, Copenhagen, Denmark) automated voltage clamp system. A flipped Na^+ gradient was used where the extracellular solution contained (in mM): 125 choline chloride, 1 NaCl, 5 KCl, 2 CaCl2, 1 MgCl2, 10 HEPES/NaOH, pH 7.4 (adjusted with NaOH), and the intracellular solution contained (in mM): 115 NaF, 15 CsCl2, 5 CsF, 3 Na2ATP, 0.3 Na2GTP, 2 MgCl2, 0.1 CaCl2, 10 EGTA, and 10 HEPES/CsOH, pH 7.2 (adjusted with NaOH). The currents were low-pass-filtered at 5 kHz and recorded at 25 kHz sampling frequency. Series resistance compensation was applied at 100%, and leak subtraction was enabled. Experiments were performed at room temperature (27° C.). Appropriate filters for cell membrane resistance (typically >500 MΩ), series resistance (<10 MΩ), and Nav current magnitude (>500 pA at a test pulse from a resting holding potential of −120 mV) were routinely applied to exclude poor quality cells. Vehicle (0.5% DMSO) controls were run on each plate to enable correction for any compound independent decrease of currents over time.
(§3) We used a double voltage-pulse protocol designed specifically to assess whether the compound is a potentiator, inhibitor, or both. The protocol assesses these parameters at both rest and partially inactivated holding potentials. Currents were assessed by a test pulse of 0 mV from a holding potential at rest (−120 mV) before preconditioning channels to their appropriate mid-potential (V1/2) values (NaV1.5 V1/2=−90 mV) for 10 s. Peak current, time constant of inactivation (τ inactivation) and persistent current were measured.
(§4) Time constants (τ) for fast inactivation onset were derived by fitting a single exponential function to the decay of current obtained from the depolarizing test pulse following a holding potential of −120 mV.
(§5) where I is current amplitude, Iss is the plateau amplitude, α is the amplitude at time 0 for time constant τ, and t is time. Persistent sodium current was measured during a 10 ms test pulse from −120 mV to 0 mV. It was calculated as a percentage of peak sodium current at 5 ms.

Nav1.5 (peak INa) = target: T2, Nav1.5 (peak INa) (Homo sapiens, UniProt Q14524); experiment: as above; assay type: cell-based; conditions: human, pH 7.4; 50 μM; holding potential −90 mV
T2 construct: expressed in transfected cells; host or cells: HEK cells, transfected with Lipofectamine 2000
Protocol: as §1, §2, §3, §4, §5

[1] = 50 μM, holding potential −120 mV
[2] = 50 μM, mid-voltage holding potential (NaV1.5 V1/2 = −90 mV)

T1 sequence (Q14524 whole entry): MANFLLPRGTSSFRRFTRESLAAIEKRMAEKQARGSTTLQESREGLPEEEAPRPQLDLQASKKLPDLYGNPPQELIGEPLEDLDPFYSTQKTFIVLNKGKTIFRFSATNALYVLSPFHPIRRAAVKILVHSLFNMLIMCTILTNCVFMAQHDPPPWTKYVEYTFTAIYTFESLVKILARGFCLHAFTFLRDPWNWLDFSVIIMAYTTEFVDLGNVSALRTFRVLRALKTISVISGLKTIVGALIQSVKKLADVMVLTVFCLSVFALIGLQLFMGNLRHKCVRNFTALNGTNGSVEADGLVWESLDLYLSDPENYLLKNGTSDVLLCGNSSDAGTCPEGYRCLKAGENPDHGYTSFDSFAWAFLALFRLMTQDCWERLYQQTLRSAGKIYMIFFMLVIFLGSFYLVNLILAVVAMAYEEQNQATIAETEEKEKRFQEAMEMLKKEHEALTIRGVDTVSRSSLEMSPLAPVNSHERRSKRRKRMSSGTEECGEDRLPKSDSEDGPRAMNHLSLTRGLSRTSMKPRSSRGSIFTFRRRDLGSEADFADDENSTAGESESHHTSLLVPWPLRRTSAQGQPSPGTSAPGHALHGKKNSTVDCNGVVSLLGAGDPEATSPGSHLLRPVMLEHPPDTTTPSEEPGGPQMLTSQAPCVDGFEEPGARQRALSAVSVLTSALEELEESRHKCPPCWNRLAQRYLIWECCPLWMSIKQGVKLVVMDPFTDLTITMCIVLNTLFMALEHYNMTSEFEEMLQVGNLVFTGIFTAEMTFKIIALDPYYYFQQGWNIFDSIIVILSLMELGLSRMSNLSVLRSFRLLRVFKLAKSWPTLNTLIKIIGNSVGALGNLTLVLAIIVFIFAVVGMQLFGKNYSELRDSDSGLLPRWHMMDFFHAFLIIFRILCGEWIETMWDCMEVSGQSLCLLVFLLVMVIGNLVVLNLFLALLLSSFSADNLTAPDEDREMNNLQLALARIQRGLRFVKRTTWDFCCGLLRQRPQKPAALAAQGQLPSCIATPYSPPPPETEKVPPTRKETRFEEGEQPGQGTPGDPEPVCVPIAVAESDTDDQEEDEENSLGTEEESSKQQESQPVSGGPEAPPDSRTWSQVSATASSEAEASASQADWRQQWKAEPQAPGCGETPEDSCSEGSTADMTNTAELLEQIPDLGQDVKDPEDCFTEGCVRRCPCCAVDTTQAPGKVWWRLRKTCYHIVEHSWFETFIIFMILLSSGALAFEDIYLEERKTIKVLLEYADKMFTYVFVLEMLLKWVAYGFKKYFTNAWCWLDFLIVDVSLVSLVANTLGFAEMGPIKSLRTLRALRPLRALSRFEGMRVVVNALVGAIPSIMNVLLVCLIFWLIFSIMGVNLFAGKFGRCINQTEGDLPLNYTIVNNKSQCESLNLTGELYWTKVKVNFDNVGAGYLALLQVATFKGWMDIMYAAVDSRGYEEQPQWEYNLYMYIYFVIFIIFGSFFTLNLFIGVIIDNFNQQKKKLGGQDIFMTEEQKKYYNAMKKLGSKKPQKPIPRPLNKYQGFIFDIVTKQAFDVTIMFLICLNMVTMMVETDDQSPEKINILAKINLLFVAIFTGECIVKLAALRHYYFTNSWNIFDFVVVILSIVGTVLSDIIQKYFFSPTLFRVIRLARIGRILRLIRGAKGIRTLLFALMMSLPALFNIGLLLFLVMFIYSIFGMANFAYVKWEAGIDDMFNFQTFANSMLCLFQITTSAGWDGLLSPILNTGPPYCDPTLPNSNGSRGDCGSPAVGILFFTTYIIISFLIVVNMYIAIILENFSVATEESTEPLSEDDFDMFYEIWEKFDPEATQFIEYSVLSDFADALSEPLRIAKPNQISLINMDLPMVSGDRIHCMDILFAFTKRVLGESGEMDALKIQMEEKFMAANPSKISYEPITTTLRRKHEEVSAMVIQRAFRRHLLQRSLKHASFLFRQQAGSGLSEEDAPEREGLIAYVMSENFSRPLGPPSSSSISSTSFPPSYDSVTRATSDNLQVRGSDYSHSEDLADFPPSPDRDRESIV
T1 sequence (Q07699 19-218 partner): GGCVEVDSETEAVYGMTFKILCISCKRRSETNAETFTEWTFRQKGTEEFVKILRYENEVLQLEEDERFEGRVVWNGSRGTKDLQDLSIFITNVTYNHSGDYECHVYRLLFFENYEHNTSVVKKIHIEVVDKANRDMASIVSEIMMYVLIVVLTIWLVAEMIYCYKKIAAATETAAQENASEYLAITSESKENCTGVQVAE
T2 sequence (Q14524 whole entry): as the sequence (Q14524 whole entry) above
T2 sequence (Q07699 19-218 partner): as the sequence (Q07699 19-218 partner) above

Cc1nc(-n2cccc2)sc1C(=O)N=c1[nH]c2ccccc2[nH]1 [AR-787, N-(1H-benzimidazol-2-yl)-4-methyl-2-pyrrol-1-yl-thiazole-5-carboxamide]
Normalized AUC (Nav1.5; 50 μM): 1.03 ± 0.06 | reduction of INa (Nav1.5; 50 μM, 0 mV test pulse from holding potential −120 mV): ~32% | deceleration of fast inactivation kinetics (Nav1.5; 50 μM, holding potential −90 mV): this effect was abolished | Normalized Inhibition (−120 mV) (Nav1.5; [1]): 0.32 ± 0.03 | Normalized τinactivation (−120 mV) (Nav1.5; [1]): 1.45 ± 0.07 | deceleration of fast inactivation kinetics (Nav1.5; [1]): ~1.5 fold | Normalized Inhibition (−65 mV and −90 mV) (Nav1.5; [2]): 0.78 ± 0.02 | Normalized τinactivation (−65 mV and −90 mV) (Nav1.5; [2]): 1.11 ± 0.10 | Normalized Persistent Current (5 ms) (Nav1.5; 50 μM, percentage of peak sodium current at 5 ms, from −120 mV to 0 mV): 10.44 ± 3.30 | increase of late INa (persistent sodium current, percent of peak current) (Nav1.5; at 5 ms of a 10 ms depolarization to 0 mV from −120 mV): ~10% | inhibition at 50 µM (Nav1.5 (peak INa)): 80%
